# Data taken from paper PMC6934184, “Selective DNA-PKcs inhibition extends the therapeutic index of localized radiotherapy and chemotherapy” (The Journal of Clinical Investigation, 2019).
# Target: T1, MYLK2 (skMLCK) (Homo sapiens, UniProt Q9H1R3)
# T1 construct: purchased Thermo Fisher Scientific (Life Technologies) SelectScreen
# Assay: SelectScreen Z'LYTE
# Format: biochemical
# Method in brief: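 Percent values come from Thermo SelectScreen profiling of NU5455, combining activity and binding assays. CSF1R was run in Z'LYTE format at Km app ATP, and CAMK1 in Adapta format with ATP listed at 10.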
# T1 sequence (Q9H1R3 whole entry): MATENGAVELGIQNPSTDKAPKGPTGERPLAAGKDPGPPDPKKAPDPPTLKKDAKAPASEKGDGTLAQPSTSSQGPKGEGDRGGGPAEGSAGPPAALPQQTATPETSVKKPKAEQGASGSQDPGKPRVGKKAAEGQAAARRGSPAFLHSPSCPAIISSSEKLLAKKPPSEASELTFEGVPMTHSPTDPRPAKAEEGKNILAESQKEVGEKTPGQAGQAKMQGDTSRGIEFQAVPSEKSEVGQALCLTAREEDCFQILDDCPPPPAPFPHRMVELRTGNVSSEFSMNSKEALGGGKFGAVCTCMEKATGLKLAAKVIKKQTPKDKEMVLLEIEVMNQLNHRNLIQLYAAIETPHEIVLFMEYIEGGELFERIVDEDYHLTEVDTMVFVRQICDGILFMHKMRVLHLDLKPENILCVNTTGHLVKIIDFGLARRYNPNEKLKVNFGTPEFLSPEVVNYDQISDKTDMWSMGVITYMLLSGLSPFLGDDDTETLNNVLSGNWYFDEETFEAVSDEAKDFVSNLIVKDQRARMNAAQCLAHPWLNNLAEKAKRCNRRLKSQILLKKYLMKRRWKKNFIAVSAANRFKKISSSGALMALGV
smiles,measurement,value
CN(C(=O)CN1CCOCC1)c1ccc2sc3c(-c4cccc5c(=O)cc(N6CC7CCC(C6)O7)oc45)cccc3c2c1 [NU5455],inhibition at 1 µM,-2.2%
